Tests used:
[1] = system: Nucleic Acid; assay: Compound was evaluated for its binding affinity constant for native calf thymus DNA in competition experiment with ethium bromide; type: nucleic-acid assay, Bos taurus
[2] = system: L1210; assay: The cytotoxicity against murine leukemia L1210; type: functional, cell-based; conditions: Mus musculus

**Q.** `COc1ccc2nc3cc(Cl)ccc3c(NCCCN(CCC(=O)NCCn3cnc4c(N)ncnc43)C(=N)N)c2c1.Cl` was tested. Which Ka [1] did it give?
**A.** 200000 M⁻¹

**Q.** What about the IC50 [2] of the same molecule?
**A.** > 100 µM
